{"source": "the supplement of paper PMC10307832", "test_in_all_cases": "relative viability (nuclei count vs DMSO), 5 days (fraction); higher = more cells survive", "key": {"NCI-H1734": {"system": "NCI-H1734", "procedure,_shortened": "(§1)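 Medians of duplicate plates are given as relative viability. That measure is the nuclei count in treated wells divided by the count in vehicle wells. Counts were taken on 4× images of lung cancer cell lines in 1536-well plates, 5 days after pin-tool dosing the day after seeding with one drug alone or a fixed anchor-drug dose plus five library-drug doses (not always all listed) in √10 steps.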"}, "A549": {"system": "A549", "procedure,_shortened": "as §1"}, "LK-2": {"system": "LK-2", "procedure,_shortened": "as §1"}, "NCI-H1650": {"system": "NCI-H1650", "procedure,_shortened": "as §1"}, "A-427": {"system": "A-427", "procedure,_shortened": "as §1"}, "UMC-11": {"system": "UMC-11", "procedure,_shortened": "as §1"}, "NCI-H1648": {"system": "NCI-H1648", "procedure,_shortened": "as §1"}, "NCI-H2009": {"system": "NCI-H2009", "procedure,_shortened": "as §1"}}}
{"smiles": "O=c1cc(N2CCOCC2)oc2c(-c3cccc4c3sc3ccccc34)cccc12", "note": "+ Nc1ncn([C@H]2C[C@H](O)[C@@H](CO)O2)c(=O)n1 [Decitabine] (partner 2 µM)", "values": [{"measurement": "relative viability", "setting": "NCI-H1734; first compound 0.01 µM", "result": 0.584}, {"measurement": "relative viability", "setting": "NCI-H1734; first compound 0.03162 µM", "result": 0.508}, {"measurement": "relative viability", "setting": "NCI-H1734; first compound 0.1 µM", "result": 0.536}, {"measurement": "relative viability", "setting": "NCI-H1734; first compound 0.3162 µM", "result": 0.498}, {"measurement": "relative viability", "setting": "NCI-H1734; first compound 1 µM", "result": 0.517}, {"measurement": "relative viability", "setting": "A549; first compound 0.01 µM", "result": 0.26}, {"measurement": "relative viability", "setting": "A549; first compound 0.03162 µM", "result": 0.242}, {"measurement": "relative viability", "setting": "A549; first compound 0.1 µM", "result": 0.189}, {"measurement": "relative viability", "setting": "A549; first compound 0.3162 µM", "result": 0.246}, {"measurement": "relative viability", "setting": "A549; first compound 1 µM", "result": 0.288}, {"measurement": "relative viability", "setting": "LK-2; first compound 0.01 µM", "result": 0.355}, {"measurement": "relative viability", "setting": "LK-2; first compound 0.03162 µM", "result": 0.324}, {"measurement": "relative viability", "setting": "LK-2; first compound 0.1 µM", "result": 0.338}, {"measurement": "relative viability", "setting": "LK-2; first compound 0.3162 µM", "result": 0.278}, {"measurement": "relative viability", "setting": "LK-2; first compound 1 µM", "result": 0.285}, {"measurement": "relative viability", "setting": "NCI-H1650; first compound 0.01 µM", "result": 0.362}, {"measurement": "relative viability", "setting": "NCI-H1650; first compound 0.03162 µM", "result": 0.384}, {"measurement": "relative viability", "setting": "NCI-H1650; first compound 0.1 µM", "result": 0.489}, {"measurement": "relative viability", "setting": "NCI-H1650; first compound 0.3162 µM", "result": 0.53}, {"measurement": "relative viability", "setting": "NCI-H1650; first compound 1 µM", "result": 0.399}, {"measurement": "relative viability", "setting": "A-427; first compound 0.01 µM", "result": 0.606}, {"measurement": "relative viability", "setting": "A-427; first compound 0.03162 µM", "result": 0.552}, {"measurement": "relative viability", "setting": "A-427; first compound 0.1 µM", "result": 0.58}, {"measurement": "relative viability", "setting": "A-427; first compound 0.3162 µM", "result": 0.591}, {"measurement": "relative viability", "setting": "A-427; first compound 1 µM", "result": 0.592}, {"measurement": "relative viability", "setting": "UMC-11; first compound 0.01 µM", "result": 0.587}, {"measurement": "relative viability", "setting": "UMC-11; first compound 0.03162 µM", "result": 0.562}, {"measurement": "relative viability", "setting": "UMC-11; first compound 0.1 µM", "result": 0.492}, {"measurement": "relative viability", "setting": "UMC-11; first compound 0.3162 µM", "result": 0.556}, {"measurement": "relative viability", "setting": "UMC-11; first compound 1 µM", "result": 0.687}, {"measurement": "relative viability", "setting": "NCI-H1648; first compound 0.03162 µM", "result": 0.594}, {"measurement": "relative viability", "setting": "NCI-H1648; first compound 0.1 µM", "result": 0.496}, {"measurement": "relative viability", "setting": "NCI-H1648; first compound 0.3162 µM", "result": 0.466}, {"measurement": "relative viability", "setting": "NCI-H1648; first compound 1 µM", "result": 0.458}, {"measurement": "relative viability", "setting": "NCI-H2009; first compound 0.01 µM", "result": 0.368}, {"measurement": "relative viability", "setting": "NCI-H2009; first compound 0.03162 µM", "result": 0.412}, {"measurement": "relative viability", "setting": "NCI-H2009; first compound 0.1 µM", "result": 0.332}, {"measurement": "relative viability", "setting": "NCI-H2009; first compound 0.3162 µM", "result": 0.368}, {"measurement": "relative viability", "setting": "NCI-H2009; first compound 1 µM", "result": 0.399}]}
{"smiles": "COc1nc(C)cnc1NS(=O)(=O)c1cccnc1-c1ccc(-c2nnco2)cc1", "note": "[Zibotentan] + Nc1ncn([C@H]2C[C@H](O)[C@@H](CO)O2)c(=O)n1 [Decitabine] (partner 2 µM)", "values": [{"measurement": "relative viability", "setting": "NCI-H1734; first compound 0.08 µM", "result": 0.486}, {"measurement": "relative viability", "setting": "NCI-H1734; first compound 0.253 µM", "result": 0.496}, {"measurement": "relative viability", "setting": "NCI-H1734; first compound 0.8 µM", "result": 0.513}, {"measurement": "relative viability", "setting": "NCI-H1734; first compound 2.53 µM", "result": 0.541}, {"measurement": "relative viability", "setting": "A549; first compound 0.08 µM", "result": 0.232}, {"measurement": "relative viability", "setting": "A549; first compound 0.253 µM", "result": 0.266}, {"measurement": "relative viability", "setting": "A549; first compound 0.8 µM", "result": 0.305}, {"measurement": "relative viability", "setting": "A549; first compound 2.53 µM", "result": 0.285}, {"measurement": "relative viability", "setting": "LK-2; first compound 0.08 µM", "result": 0.387}, {"measurement": "relative viability", "setting": "LK-2; first compound 0.253 µM", "result": 0.289}, {"measurement": "relative viability", "setting": "LK-2; first compound 0.8 µM", "result": 0.317}, {"measurement": "relative viability", "setting": "LK-2; first compound 2.53 µM", "result": 0.213}, {"measurement": "relative viability", "setting": "NCI-H1650; first compound 0.08 µM", "result": 0.393}, {"measurement": "relative viability", "setting": "NCI-H1650; first compound 0.8 µM", "result": 0.626}, {"measurement": "relative viability", "setting": "NCI-H1650; first compound 2.53 µM", "result": 0.488}, {"measurement": "relative viability", "setting": "A-427; first compound 0.08 µM", "result": 0.537}, {"measurement": "relative viability", "setting": "A-427; first compound 0.253 µM", "result": 0.542}, {"measurement": "relative viability", "setting": "A-427; first compound 0.8 µM", "result": 0.613}, {"measurement": "relative viability", "setting": "A-427; first compound 2.53 µM", "result": 0.582}, {"measurement": "relative viability", "setting": "UMC-11; first compound 0.08 µM", "result": 0.576}, {"measurement": "relative viability", "setting": "UMC-11; first compound 0.253 µM", "result": 0.532}, {"measurement": "relative viability", "setting": "UMC-11; first compound 0.8 µM", "result": 0.634}, {"measurement": "relative viability", "setting": "UMC-11; first compound 2.53 µM", "result": 0.697}, {"measurement": "relative viability", "setting": "NCI-H1648; first compound 0.08 µM", "result": 0.544}, {"measurement": "relative viability", "setting": "NCI-H1648; first compound 0.253 µM", "result": 0.464}, {"measurement": "relative viability", "setting": "NCI-H1648; first compound 0.8 µM", "result": 0.519}, {"measurement": "relative viability", "setting": "NCI-H1648; first compound 2.53 µM", "result": 0.461}, {"measurement": "relative viability", "setting": "NCI-H2009; first compound 0.08 µM", "result": 0.404}, {"measurement": "relative viability", "setting": "NCI-H2009; first compound 0.253 µM", "result": 0.398}, {"measurement": "relative viability", "setting": "NCI-H2009; first compound 0.8 µM", "result": 0.417}, {"measurement": "relative viability", "setting": "NCI-H2009; first compound 2.53 µM", "result": 0.377}]}
{"smiles": "CCN(CC)CCCCNc1ncc2cc(-c3cc(OC)cc(OC)c3)c(NC(=O)NC(C)(C)C)nc2n1", "note": "+ Nc1ncn([C@H]2C[C@H](O)[C@@H](CO)O2)c(=O)n1 [Decitabine] (partner 2 µM)", "values": [{"measurement": "relative viability", "setting": "NCI-H1734; first compound 0.01 µM", "result": 0.485}, {"measurement": "relative viability", "setting": "NCI-H1734; first compound 0.03162 µM", "result": 0.372}, {"measurement": "relative viability", "setting": "NCI-H1734; first compound 0.1 µM", "result": 0.534}, {"measurement": "relative viability", "setting": "NCI-H1734; first compound 0.3162 µM", "result": 0.473}, {"measurement": "relative viability", "setting": "NCI-H1734; first compound 1 µM", "result": 0.475}, {"measurement": "relative viability", "setting": "A549; first compound 0.01 µM", "result": 0.27}, {"measurement": "relative viability", "setting": "A549; first compound 0.03162 µM", "result": 0.27}, {"measurement": "relative viability", "setting": "A549; first compound 0.1 µM", "result": 0.312}, {"measurement": "relative viability", "setting": "A549; first compound 0.3162 µM", "result": 0.212}, {"measurement": "relative viability", "setting": "A549; first compound 1 µM", "result": 0.288}, {"measurement": "relative viability", "setting": "LK-2; first compound 0.01 µM", "result": 0.305}, {"measurement": "relative viability", "setting": "LK-2; first compound 0.03162 µM", "result": 0.268}, {"measurement": "relative viability", "setting": "LK-2; first compound 0.1 µM", "result": 0.192}, {"measurement": "relative viability", "setting": "LK-2; first compound 0.3162 µM", "result": 0.217}, {"measurement": "relative viability", "setting": "LK-2; first compound 1 µM", "result": 0.175}, {"measurement": "relative viability", "setting": "NCI-H1650; first compound 0.01 µM", "result": 0.398}, {"measurement": "relative viability", "setting": "NCI-H1650; first compound 0.03162 µM", "result": 0.381}, {"measurement": "relative viability", "setting": "NCI-H1650; first compound 0.1 µM", "result": 0.397}, {"measurement": "relative viability", "setting": "NCI-H1650; first compound 0.3162 µM", "result": 0.368}, {"measurement": "relative viability", "setting": "NCI-H1650; first compound 1 µM", "result": 0.384}, {"measurement": "relative viability", "setting": "A-427; first compound 0.01 µM", "result": 0.626}, {"measurement": "relative viability", "setting": "A-427; first compound 0.03162 µM", "result": 0.506}, {"measurement": "relative viability", "setting": "A-427; first compound 0.1 µM", "result": 0.518}, {"measurement": "relative viability", "setting": "A-427; first compound 0.3162 µM", "result": 0.548}, {"measurement": "relative viability", "setting": "A-427; first compound 1 µM", "result": 0.524}, {"measurement": "relative viability", "setting": "UMC-11; first compound 0.01 µM", "result": 0.724}, {"measurement": "relative viability", "setting": "UMC-11; first compound 0.03162 µM", "result": 0.615}, {"measurement": "relative viability", "setting": "UMC-11; first compound 0.1 µM", "result": 0.661}, {"measurement": "relative viability", "setting": "UMC-11; first compound 0.3162 µM", "result": 0.592}, {"measurement": "relative viability", "setting": "UMC-11; first compound 1 µM", "result": 0.592}, {"measurement": "relative viability", "setting": "NCI-H1648; first compound 0.01 µM", "result": 0.407}, {"measurement": "relative viability", "setting": "NCI-H1648; first compound 0.03162 µM", "result": 0.565}, {"measurement": "relative viability", "setting": "NCI-H1648; first compound 0.1 µM", "result": 0.499}, {"measurement": "relative viability", "setting": "NCI-H1648; first compound 0.3162 µM", "result": 0.417}, {"measurement": "relative viability", "setting": "NCI-H1648; first compound 1 µM", "result": 0.383}, {"measurement": "relative viability", "setting": "NCI-H2009; first compound 0.01 µM", "result": 0.401}, {"measurement": "relative viability", "setting": "NCI-H2009; first compound 0.03162 µM", "result": 0.39}, {"measurement": "relative viability", "setting": "NCI-H2009; first compound 0.1 µM", "result": 0.35}, {"measurement": "relative viability", "setting": "NCI-H2009; first compound 0.3162 µM", "result": 0.387}, {"measurement": "relative viability", "setting": "NCI-H2009; first compound 1 µM", "result": 0.365}]}
